Test results as given in patent publication US10100284B2, “Method for inducing differentiation of pluripotent stem cells into endodermal cells” (TOAGOSEI CO., LTD., priority 2013, dated 2018).
Where no end group is shown, it is not given here.

What was measured:
[1] = system: human-derived iPS cells (clone name: 201B2 or 201B7); experiment: Stem cell differentiation-inducing activity based on iPS cell transformation (optical microscope morphology); details: peptide concentration 4.0 μM; eight days after the beginning of culture; FIG. 1; peptide-free group 80% or more black (undifferentiated)
Description: The differentiation-inducing activity of a differentiation-inducing synthetic peptide (Sample 1) obtained in Example 1 above was evaluated based on the transformation of iPS cells cultured and passaged in vitro. A peptide-free group was also provided as a comparative example. The details of the evaluation test were as follows.
Cells supplied by the Kyoto University Center for iPS cell Research and Application were used as the human-derived iPS cells in this example (clone name: 201B2 or 201B7, reference source: Takahashi K et al., Cell, 131, 861-872 (2007)). For the feeder cells used in culturing these iPS cells, mouse embryonic fibroblasts (MEF cells) were used to passage (maintain) the iPS cells, while mouse embryonic fibroblasts (cell strain SNL 76/7) supplied under license by the Baylor College of Medicine were used in testing to evaluate the stem cell differentiation-inducing activity of the differentiation-inducing synthetic peptide (Sample 1).
Feeder cells that had been inactivated by mitomycin C treatment were seeded ahead of time on a gelatin-coated 24-well plate 1 to 4 days before seeding of the iPS cells. […]

[2] = system: iPS cells (clone name: 201B2 or 201B7); experiment: Quantitative RT-PCR of stem cell marker gene and germ layer differentiation marker genes in iPS cells; type: cell-based, human; details: peptide concentration 6.0 μM, FIG. 3
Description: The stem cell differentiation-inducing activity of a differentiation-inducing synthetic peptide (Sample 1) obtained in Example 1 above was evaluated by measuring changes over time in the expressed amounts of a stem cell differentiation marker gene (that is, a stem cell marker gene) and differentiation marker genes for the three kinds of germ layer cells. iPS cells that had been cultured and passaged in vitro were used as the test cells. The specifics of the evaluation test were as follows.
iPS cells (clone name: 201B2 or 201B7) were cultured as in Example 2 except that Sample 1 that had been prepared with DMSO/EtOH=1/1 to a peptide concentration of 4 mM was added 1.5 μL/well (that is to a peptide concentration of 6.0 μM in the well). A peptide-free group was also established as a comparative example. The medium was replaced and peptide was added two days, four days and six days after initiation of iPS cell culture. […]
25 to […] of purified RNA was supplied to quantitative RT-PCR, and the expressed amounts of a stem cell marker gene and differentiation marker genes for the three kinds of germ layer cells were quantified. […] A One Step SYBR® PrimeScript® PLUS RT-PCR Kit (TaKaRa Bio) was used for the quantitative RT-PCR, in accordance with the attached manual. […] The quantitative RT-PCR reaction consisted of 5 minutes of incubation at 42° C. to perform reverse transcription, followed by 10 seconds of incubation at 95° C., and 40 cycles consisting of 5 seconds at 95° and 31 seconds at 63° C.
The quantitative results for expression of a stem cell marker gene and differentiation marker genes for the three kinds of germ layer cells are shown in FIG. 3. The expressed amounts of these genes were first corrected by the expressed amounts of the GAPDH gene in each test group, and the relative expressed amount of the gene in the Sample 1 group relative to the expressed amount of the gene in the peptide-free group was determined by the ΔΔCt method.

LLLLLLVGLTAPAGKKRTLRKNDRKKR-CONH2 (LLLLLLVGLTAPAGKKRTLRKNDRKKR-NH2) [Sample 1]
part of microscope field appearing white (occupied by colonies of differentiated iPS cells) [1]: ≥ 80%
increase in the relative expressed amount of the AFP gene ([2]; 20th day after initiation of culture): particularly dramatic
expression timing of endodermal cell marker genes SOX17, GATA4 and FOXA2 [2]: sooner than the AFP gene
relative expressed amount of the AFP gene (endodermal marker gene) relative to peptide-free group (ΔΔCt, GAPDH corrected) ([2]; beginning 13 days after initiation of culture): increased much more than the relative expressed amounts of the other genes
